Source: patent US7396837B2, “Antitumoral analogs of lamellarins” (Pharma Mar, S.A.U., priority 2002, dated 2008)
Where two headings read alike, the source gives them in different places.

Legend:
[1] = system: HT-29; test: SRB colorimetric cell growth inhibition assay, HT-29; assay type: cell-based
In short: (§1)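 In this cytotoxicity screen, compound stays in contact with the cultured human cancer cells without washout; sulforhodamine B binding gives the measure of cell number, and endpoints separate growth inhibition from cytostasis (TGI) and killing (LC).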

[2] = system: A-549; test: SRB colorimetric cell growth inhibition assay, A-549; assay type: cell-based; conditions: for GI50: GI=growth inhibition, read-out: GI50 A-549
In short: as §1

[3] = system: IGROV-ET; test: SRB colorimetric cell growth inhibition assay, IGROV-ET (ET-743 resistant); assay type: cell-based; conditions: for CC50: LC=cell killing (cytotoxic effect)
In short: as §1

[4] = system: SKOV-3; test: SRB colorimetric cell growth inhibition assay, SKOV-3; assay type: cell-based
Description: (§2) Inhibition of Cell Growth by Colorimetric Assay.
(§3) A colorimetric type of assay, using sulforhodamine B (SRB) reaction has been adapted for a quantitative measurement of cell growth and viability (following the technique described by P. A. Skehan, et al., J. Natl. Cancer Inst. 1990, 82, 1107-1112).
(§4) This form of assay employs 96 well cell culture microplates of 9 mm diameter (T. Mosmann et al., J. of Immunological Methods 1983, 65, 55-63; G. T. Faircloth et al., J. of Tissue and Culture Methods 1988, 11, 201-205).
(§5) Most of the cell lines are obtained from American Type Culture Collection (ATCC) derived from different human cancer types.
(§6) The values for mean +/− SD of data from triplicate wells are calculated. Some parameters for cellular responses can be calculated: GI=growth inhibition, TGI=total growth inhibition (cytostatic effect) and LC=cell killing (cytotoxic effect).

[5] = system: H-MEC-1; test: SRB colorimetric cell growth inhibition assay, H-MEC-1; assay type: cell-based; conditions: for IC (TGI): Homo sapiens
Description: as §2, §3, §4, §5, §6

[6] = system: LoVo; test: SRB colorimetric cell growth inhibition assay, LoVo; assay type: cell-based; conditions: for IC (TGI): TGI=total growth inhibition (cytostatic effect), read-out: TGI LOVO
In short: as §1

[7] = system: LoVo-Dox; test: SRB colorimetric cell growth inhibition assay, LoVo-Dox (MDR); assay type: cell-based
In short: as §1

[8] = system: PANC-1; test: SRB colorimetric cell growth inhibition assay, PANC-1; assay type: cell-based
In short: as §1

[9] = system: SK-MEL-28; test: SRB colorimetric cell growth inhibition assay, SK-MEL-28; assay type: cell-based
In short: as §1

[10] = system: SK-BR-3; test: SRB colorimetric cell growth inhibition assay, SK-BR-3; assay type: cell-based; conditions: SK-BR-3
In short: as §1

[11] = system: LNCaP; test: SRB colorimetric cell growth inhibition assay, LNCaP; assay type: cell-based; conditions: LN-caP
In short: as §1

[12] = system: DU-145; test: SRB colorimetric cell growth inhibition assay, DU-145; assay type: cell-based; conditions: DU-145
In short: as §1

[13] = system: K-562; test: SRB colorimetric cell growth inhibition assay, K-562; assay type: cell-based; conditions: K-562
In short: as §1

[14] = system: IGROV; test: SRB colorimetric cell growth inhibition assay, IGROV; assay type: cell-based; conditions: IGROV
In short: as §1

[15] = target: T1, human topoisomerase I (Homo sapiens, UniProt P11387); test: Topoisomerase I DNA relaxation assay (supercoiled plasmid DNA); assay type: biochemical; conditions: supercoiled plasmid DNA, each compound tested at 1 μM, agarose gel with ethidium bromide
T1 sequence (P11387 1-765): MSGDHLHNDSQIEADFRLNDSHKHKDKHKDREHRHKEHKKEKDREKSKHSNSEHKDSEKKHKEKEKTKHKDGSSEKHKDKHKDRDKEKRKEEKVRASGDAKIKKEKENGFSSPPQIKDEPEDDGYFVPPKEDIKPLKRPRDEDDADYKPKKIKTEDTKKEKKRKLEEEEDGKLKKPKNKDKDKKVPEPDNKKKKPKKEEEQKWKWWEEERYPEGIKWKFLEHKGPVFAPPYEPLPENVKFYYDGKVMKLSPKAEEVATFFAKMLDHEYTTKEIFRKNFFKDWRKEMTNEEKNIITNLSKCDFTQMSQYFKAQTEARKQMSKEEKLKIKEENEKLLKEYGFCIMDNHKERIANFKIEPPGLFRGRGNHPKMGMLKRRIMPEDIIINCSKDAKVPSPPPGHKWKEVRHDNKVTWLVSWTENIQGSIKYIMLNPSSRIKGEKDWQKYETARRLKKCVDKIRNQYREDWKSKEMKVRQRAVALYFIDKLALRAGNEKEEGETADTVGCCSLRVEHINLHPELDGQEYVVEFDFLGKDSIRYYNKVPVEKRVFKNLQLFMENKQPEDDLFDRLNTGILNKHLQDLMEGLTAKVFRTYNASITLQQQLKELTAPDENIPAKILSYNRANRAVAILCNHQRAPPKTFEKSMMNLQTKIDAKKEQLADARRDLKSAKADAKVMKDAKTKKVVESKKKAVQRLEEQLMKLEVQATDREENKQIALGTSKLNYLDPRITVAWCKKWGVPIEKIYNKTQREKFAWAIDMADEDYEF
Protocol: Two assays, based on DNA relaxation and DNA cleavage (Bailly, C. DNA relaxation and cleavage assays to study topoisomerase I inhibitors. Methods Enzymol. 2001, 340, 610-623) were used evaluate the effects of the lamellarin analogs on the catalytic activity of human topoisomerase I.
In the first assay, a supercoiled plasmid DNA was relaxed with topoisomerase I in the absence or presence of the test compounds, each tested at 1 μM. DNA relaxation products were then resolved by gel electrophoresis on agarose gels containing ethidium bromide to stain the DNA.

[16] = TGI=total growth inhibition (cytostatic effect)

Compound: COc1cc(-c2c3n(c4c(=O)oc5cc(OC(=O)[C@H](C)NC(=O)OC(C)(C)C)c(OC)cc5c24)CCc2c-3cc(OC)c(OC)c2OC(=O)[C@H](C)NC(=O)OC(C)(C)C)ccc1OC(=O)[C@H](C)NC(=O)OC(C)(C)C [Compound 46]
- CC50 ([1]; Homo sapiens, HT-29, read-out: LC50 HT-29, HT-29, LC=cell killing (cytotoxic effect)): 9.57 µM
- IC (TGI) ([1]; Homo sapiens, HT-29, TGI=total growth inhibition (cytostatic effect), read-out: TGI HT-29): 9.57 µM
- GI50 ([2]; A-549): 2330 nM
- GI50 ([2]; Homo sapiens, A549, A-549): 1310 nM
- IC (TGI) ([2]; Homo sapiens, A549, A-549, TGI=total growth inhibition (cytostatic effect), read-out: TGI A-549): 9.57 µM
- CC50 ([2]; Homo sapiens, A549, read-out: LC50 A-549, A-549, LC=cell killing (cytotoxic effect)): 9.57 µM
- CC50 ([3]; Homo sapiens, read-out: LC50 IGROV-ET, IGROV-ET): 9.57 µM
- CC50 ([4]; Homo sapiens, SK-OV-3, read-out: LC50 SKOV-3): 9.57 µM
- IC (TGI) ([5]; HMEC-1, read-out: TGI H-MEC-1, H-MEC-1, TGI=total growth inhibition (cytostatic effect)): 9.57 µM
- IC (TGI) ([5]; HMEC-1, H-MEC-1, TGI=total growth inhibition (cytostatic effect), read-out: TGI H-MEC-1): 0.000847 µM
- CC50 ([6]; Homo sapiens, LoVo, read-out: LC50 LOVO, LOVO, LC=cell killing (cytotoxic effect)): 9.57 µM
- IC (TGI) ([6]; Homo sapiens, LoVo): 0.00932 µM
- IC (TGI) ([6]; Homo sapiens, LOVO): 9.57 µM
- IC (TGI) ([7]; Homo sapiens, LOVO-DOX; TGI=total growth inhibition (cytostatic effect); read-out: TGI LOVO-DOX): 0.0957 µM
- CC50 ([7]; Homo sapiens, read-out: LC50 LOVO-DOX, LOVO-DOX; LC=cell killing (cytotoxic effect)): 9.57 µM
- IC (TGI) ([7]; Homo sapiens; LOVO-DOX; TGI=total growth inhibition (cytostatic effect); read-out: TGI LOVO-DOX): 9.57 µM
- CC50 ([8]; Homo sapiens, PANC-1, read-out: LC50 PANC-1, PANC-1, LC=cell killing (cytotoxic effect)): 9.57 µM
- IC (TGI) ([9]; Homo sapiens, SK-MEL-28, MEL-28; TGI=total growth inhibition (cytostatic effect); read-out: TGI MEL-28): 0.00417 µM
- IC (TGI) ([9]; Homo sapiens, SK-MEL-28; MEL-28; TGI=total growth inhibition (cytostatic effect); read-out: TGI MEL-28): 9.57 µM

Compound: COc1cc(-c2c3n(c4c(=O)oc5cc(OC(C)=O)c(OC)cc5c24)CCc2cc(OC)c(OC(C)=O)cc2-3)ccc1OC(C)=O [Compound 94]
- GI50 ([1]; HT-29, GI=growth inhibition, read-out: GI50 HT-29): 15.5 µM
- CC50 ([1]; HT-29, cell killing (cytotoxic effect), read-out: LC50 HT-29): 15.9 µM
- TGI HT-29 ([1]; HT-29, total growth inhibition (cytostatic effect)): 1.59E−05 Molar
- GI50 ([10]; GI=growth inhibition, read-out: GI50 SK-BR-3): 3.35 µM
- CC50 ([10]; LC=cell killing (cytotoxic effect), read-out: LC50 SK-BR-3): 15.9 µM
- TGI SK-BR-3 [10, 16]: 1.24E−05 Molar
- GI50 ([2]; A-549): 7190 nM
- CC50 ([2]; A-549, cell killing (cytotoxic effect), read-out: LC50 A-549): 15.9 µM
- TGI A-549 ([2]; A-549, total growth inhibition (cytostatic effect)): 1.59E−05 Molar
- GI50 ([11]; GI=growth inhibition, read-out: GI50 LN-caP): 673 nM
- CC50 ([11]; LC=cell killing (cytotoxic effect), read-out: LC50 LN-caP): 12.5 µM
- TGI LN-caP [11, 16]: 2.87E−06 Molar
- GI50 ([3]; IGROV-ET, GI=growth inhibition, read-out: GI50 IGROV-ET): 1590 nM
- CC50 ([3]; IGROV-ET, read-out: LC50 IGROV-ET): 15.9 µM
- TGI IGROV-ET ([3]; IGROV-ET, TGI=total growth inhibition (cytostatic effect)): 1.59E−05 Molar
- GI50 ([4]; SKOV-3, GI=growth inhibition, read-out: GI50 SKOV-3): 8.48 µM
- CC50 ([4]; SKOV-3, LC=cell killing (cytotoxic effect), read-out: LC50 SKOV-3): 15.9 µM
- TGI SKOV-3 ([4]; SKOV-3, TGI=total growth inhibition (cytostatic effect)): 1.59E−05 Molar
- GI50 ([5]; H-MEC-1, GI=growth inhibition): 15.9 µM
- CC50 ([5]; H-MEC-1, LC=cell killing (cytotoxic effect), read-out: LC50 H-MEC-1): 15.9 µM
- TGI H-MEC-1 ([5]; H-MEC-1, TGI=total growth inhibition (cytostatic effect)): 1.59E−05 Molar
- GI50 ([12]; GI=growth inhibition, read-out: GI50 DU-145): 13.1 µM
- CC50 ([12]; LC=cell killing (cytotoxic effect), read-out: LC50 DU-145): 15.9 µM
- TGI DU-145 [12, 16]: 1.59E−05 Molar
- GI50 ([13]; GI=growth inhibition, read-out: GI50 K-562): 526 nM
- CC50 ([13]; cell killing (cytotoxic effect), read-out: LC50 K-562): 4.32 µM
- TGI K-562 ([13]; total growth inhibition (cytostatic effect)): 1.82E−06 Molar
- GI50 ([6]; LOVO, GI=growth inhibition, read-out: GI50 LOVO): 5.7 µM
- CC50 ([6]; LOVO, cell killing (cytotoxic effect), read-out: LC50 LOVO): 15.9 µM
- TGI LOVO ([6]; LOVO, total growth inhibition (cytostatic effect)): 1.59E−05 Molar
- GI50 ([7]; LOVO-DOX; GI=growth inhibition; read-out: GI50 LOVO-DOX): 2840 nM
- CC50 ([7]; LOVO-DOX; cell killing (cytotoxic effect); read-out: LC50 LOVO-DOX): 15.9 µM
- TGI LOVO-DOX ([7]; LOVO-DOX; total growth inhibition (cytostatic effect)): 8.25E−06 Molar
- GI50 ([8]; PANC-1, GI=growth inhibition, read-out: GI50 PANC-1): 2120 nM
- CC50 ([8]; PANC-1, cell killing (cytotoxic effect), read-out: LC50 PANC-1): 15.9 µM
- TGI PANC-1 ([8]; PANC-1, total growth inhibition (cytostatic effect)): 1.59E−05 Molar
- GI50 ([14]; GI=growth inhibition, read-out: GI50 IGROV): 1830 nM
- CC50 ([14]; LC=cell killing (cytotoxic effect), read-out: LC50 IGROV): 15.9 µM
- TGI IGROV [14, 16]: 5.90E−06 Molar
- GI50 ([9]; MEL-28; GI=growth inhibition; read-out: GI50 MEL-28): 2450 nM
- CC50 ([9]; MEL-28; LC=cell killing (cytotoxic effect); read-out: LC50 MEL-28): 15.9 µM
- TGI MEL-28 ([9]; MEL-28; TGI=total growth inhibition (cytostatic effect)): 7.31E−06 Molar

Compound: COc1cc(-c2c3n(c4c(=O)oc5cc(OC(C)=O)c(OC)cc5c24)CCc2cc(OC(C)=O)c(OC)cc2-3)ccc1OC(C)=O [Compound 108]
- stimulation of DNA cleavage by topoisomerase I / inhibition of topoisomerase I (nicked DNA band) in DNA relaxation assay [15]: inactive

Compound: COc1cc(-c2c3c4cc(OC)c(OC(=O)[C@H](NC(=O)OC(C)(C)C)C(C)C)cc4oc(=O)c3n3ccc4cc(OC(=O)[C@H](NC(=O)OC(C)(C)C)C(C)C)c(OC)cc4c23)ccc1OC(=O)[C@H](NC(=O)OC(C)(C)C)C(C)C [Compound 122]
- stimulation of DNA cleavage by topoisomerase I / inhibition of topoisomerase I (nicked DNA band) in DNA relaxation assay [15]: No effect

Compound: COc1cc(-c2c3n(c4c(=O)oc5cc(OC(=O)c6cc(F)c(F)c(F)c6F)c(OC)cc5c24)CCc2cc(OC(=O)c4cc(F)c(F)c(F)c4F)c(OC)cc2-3)ccc1OC(=O)c1cc(F)c(F)c(F)c1F [Compound 139]
- stimulation of DNA cleavage by topoisomerase I / inhibition of topoisomerase I (nicked DNA band) in DNA relaxation assay [15]: inactive
